Experimental data reported in US20220380383A1, “NEUROPROTECTIVE PDI MODULATING SMALL MOLECULES AND METHODS OF USE THEREOF” (THE TRUSTEES OF COLUMBIA UNIVERSITY IN THE CITY OF NEW YORK, priority 2018, published 2022).
≈ marks a conversion by molar mass, not a printed value. Read-outs that look alike come from different tables or passages of the source.

Columns and labels:
[1] = biological target: T1, human catalytic PDI A1 a domain (PDIa) (Homo sapiens, UniProt P07237); assay: Isothermal titration calorimetry (ITC) binding to PDIa
T1 construct: made in house; host or cells: Escherichia coli BL21-Gold (DE3)
T1 sequence (P07237 18-134): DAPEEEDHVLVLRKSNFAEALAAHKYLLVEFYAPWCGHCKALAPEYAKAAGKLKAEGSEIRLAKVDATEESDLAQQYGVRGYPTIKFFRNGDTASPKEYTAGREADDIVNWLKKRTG
Procedure: All ITC experiments were carried out at 25° C. on MicoCal Auto-ITC200 system (GE Healthcare). […] ITC titration experiments were carried out at 25° C. with 19 injections, 2 μl per injection, and 180 seconds between each injection. The reference cell power was set to 5 μcal/sec. A control experiment was performed for each compound, where each compound was titrated into buffer to account for heat released due to dilution. This background was subtracted from test data before a final dissociation constant was obtained. […] Gibbs free energy, ΔG, was calculated from equation ΔG=ΔH-TΔS. All other parameters, Ka, n, ΔH, ΔS, were determined directly from the titration data.
LOC14 analogs were designed and synthesized as described in the synthetic schemes. The analogs were evaluated for their binding to PDIa using isothermal titration calorimetry (ITC) (results of certain compounds are shown in FIGS. 1A-1E). Next, the analogs were tested for their ability to rescue PC12 cells from mHTT^Q103 induced cell death in a dose-dependent manner (results of certain compounds are shown in FIG. 2).

PC12 mHTTQ103 cells = assay: Rescue of PC12 cells from mHTTQ103-induced cell death; assay type: cell-based, rat; conditions: for EC50: Rattus norvegicus, PC-12
[2] = Solubility (stock solvent)
[3] = Tables 5-13, NA = not active, read-out: Kd
[4] = Tables 5-13, PC12 cells, read-out: EC50
[5] = rescue from mHTTQ103 induced cell death
[6] = Tables 5-13, solvent not given (DMSO in Table 1)
[7] = N/A = not active, read-out: ITC KD
[8] = rescue from mHTTQ103 induced cell death, read-out: PC12 cells EC50

Row | SMILES | Kd [1, 3] [nM] | EC50 (PC12 mHTTQ103 cells; [4]) [nM] | Max Viability (%) (PC12 mHTTQ103 cells; Tables 5-13, PC12 cells) | PC12 cells Max % Viability (PC12 mHTTQ103 cells; [5]) [%] | Solubility [2] [mM in DMSO] | Solubility [2, 6] [mM] | Kd [1, 7] [nM] | EC50 (PC12 mHTTQ103 cells; [8]) [nM] | Kd ([1]; Tables 6, 11, 12, read-out: Kd (nM), first value of two-site binding) [nM] | Kd ([1]; Tables 6, 11, 12, read-out: Kd (nM), second value of two-site binding) [nM] | ITC KD ([1]; N/A = not active) | Kd ([1]; ITC assay, read-out: KD) [nM] | PC12 cells EC50 (PC12 mHTTQ103 cells; [5]) | Solubility ([2]; in water) [mM in water]
1 | O=c1c2ccccc2sn1CN1CCCCC1 [LC-1] | 107 | 459 | 67 | 66.57 | 100 | 100 (≈ 24.8 mg/mL) | – | – | – | – | – | – | – | –
2 | CN1CCN(Cn2sc3ccccc3c2=O)CC1 [LC-2] | 134 ± 20 | 415 | 63 | 63.29 | 100 | 100 (≈ 26.3 mg/mL) | – | – | – | – | – | – | – | –
3 | O=c1c2ccccc2sn1CN1CCSCC1 [LC-3] | – | 463 | 63 | 63.05 | – | 100 (≈ 26.6 mg/mL) | 97.1 | – | – | – | – | – | – | –
4 | O=c1c2ccccc2sn1CN1CCC(CO)CC1 [LC-4] | 265 | 343 | 60 | 60.18 | 100 | 100 (≈ 27.8 mg/mL) | – | 342 | – | – | – | – | – | –
5 | O=c1c2ccccc2sn1Cc1ccccc1 [LC-5] | – | – | – | – | 100 | 100 (≈ 24.1 mg/mL) | – | – | 43 | 2270 | – | – | – | –
6 | O=C(Nc1ccccc1)n1sc2ccccc2c1=O [LC-6] | – | 476 | 66 | 66.47 | 30 | 30 (≈ 8.11 mg/mL) | – | – | – | – | KD = N/A irreversible or not active | – | – | –
7 | O=c1c2ccccc2sn1CN1CCC(O)CC1 [LC-7] | – | 441 | 72 | 71.98 | 100 | 100 (≈ 26.4 mg/mL) | – | – | – | – | – | – | – | –
8 | CC(C)(C)OC(=O)NC1CCN(Cn2sc3ccccc3c2=O)CC1 [LC-8] | 94 | 384 | 68 | 68.37 | – | – | – | 384 | – | – | – | – | – | –
9 | O=c1c2ccccc2sn1CN1CCN(Cn2sc3ccccc3c2=O)CC1 [LC-9] | – | – | 66 | 66.07 | 5 | 5 (≈ 2.06 mg/mL) | 12.7 | 173 | – | – | – | 13 | – | –
10 | CC(C)(C)OC(=O)N1CCN(Cn2sc3ccccc3c2=O)CC1 [LC-10] | 123 ± 34 | 581 | 72 | 71.82 | 100 | 100 (≈ 34.9 mg/mL) | – | 561 | – | – | – | – | – | –
11 | O=C(c1ccccc1)n1sc2ccccc2c1=O [LC-11] | – | > 50000 | 28 | 27.72 | 100 | 100 (≈ 25.5 mg/mL) | – | – | – | – | KD = N/A irreversible or not active | – | – | –
12 | O=c1c2ccccc2sn1CN1CCN(c2ncccn2)CC1 [LC-12] | 140 ± 29 | 416 | 68 | 68.35 | 100 | 100 (≈ 32.7 mg/mL) | – | – | – | – | – | – | – | –
13 | CC(=O)c1ccc(N2CCN(Cn3sc4ccccc4c3=O)CC2)cc1 [LC-13] | 190 ± 27 | 514 | 63 | 63.14 | 100 | 100 (≈ 36.7 mg/mL) | – | – | – | – | – | – | – | –
14 | O=C(C1CC1)N1CCN(C(=O)n2sc3ccccc3c2=O)CC1 [LC-14] | – | > 50000 | 34 | 33.58 | – | – | – | – | – | – | KD = N/A irreversible or not active | – | – | –
15 | O=C(C1CC1)N1CCN(Cn2sc3ccc(Cl)cc3c2=O)CC1 [LC-15] | 114 | 487 | 57 | 56.92 | 15 | 15 (≈ 5.28 mg/mL) | – | 487 | – | – | – | – | – | –
16 | CC(C)(C)OC(=O)N1CCC(COc2nsc3ccccc23)CC1 [LC-16] | – | > 50000 | 30 | 30.24 | – | – | – | – | – | – | KD = N/A irreversible or not active | – | – | –
17 | O=c1c2ccccc2sn1CN1CCOCC1 [LC-18] | 253 | 547 | 69 | 69.00 | 100 | 100 (≈ 25 mg/mL) | – | – | – | – | – | – | – | –
18 | O=C(Nc1ccccc1)c1ccccc1S [LC-19] | – | – | – | – | – | – | – | – | – | – | KD = N/A irreversible or not active | – | – | –

Row | SMILES | Kd [1, 3] [nM] | EC50 (PC12 mHTTQ103 cells; [4]) [nM] | Max Viability (%) (PC12 mHTTQ103 cells; Tables 5-13, PC12 cells) | PC12 cells Max % Viability (PC12 mHTTQ103 cells; [5]) [%] | Solubility [2] [mM in DMSO] | Solubility [2, 6] [mM] | Kd [1, 7] [nM] | EC50 (PC12 mHTTQ103 cells; [8]) [nM] | Kd ([1]; Tables 6, 11, 12, read-out: Kd (nM), first value of two-site binding) [nM] | Kd ([1]; Tables 6, 11, 12, read-out: Kd (nM), second value of two-site binding) [nM] | ITC KD ([1]; N/A = not active) | Kd ([1]; ITC assay, read-out: KD) [nM] | PC12 cells EC50 (PC12 mHTTQ103 cells; [5]) | Solubility ([2]; in water) [mM in water]
19 | O=C(NCc1ccc(Br)cc1)c1ccccc1S [LC-20] | – | > 50000 | 42 | 42.11 | 100 | 100 (≈ 32.2 mg/mL) | – | – | – | – | KD = N/A irreversible or not active | – | – | –
20 | O=C(Nc1ccc(N2CCOCC2)cc1)c1ccccc1S [LC-21] | – | 696 | 32 | 31.98 | 100 | 100 (≈ 31.4 mg/mL) | – | – | – | – | KD = N/A irreversible or not active | – | – | –
21 | O=c1c2ccccc2sn1CN1CCN(Cc2ccccc2)CC1 [LC-22] | 173 ± 32 | 310 | 62 | 61.51 | 100 | 100 (≈ 33.9 mg/mL) | – | – | – | – | – | – | – | –
22 | O=C(Nc1ccc(Cc2ccccc2)cc1)c1ccccc1S [LC-23] | – | 3880 | 57 | 56.53 | 100 | 100 (≈ 31.9 mg/mL) | – | – | – | – | KD = N/A irreversible or not active | – | – | –
23 | O=c1c2ccccc2sn1-c1ccc(Cc2ccccc2)cc1 [LC-25] | – | 1590 | 37 | 36.83 | 100 | 100 (≈ 31.7 mg/mL) | – | – | – | – | KD = N/A irreversible or not active | – | – | –
24 | O=c1c2ccccc2sn1Cc1ccc(Br)cc1 [LC-26] | – | 778 | 38 | 37.88 | 100 | 100 (≈ 32 mg/mL) | – | – | – | – | KD = N/A irreversible or not active | – | – | –
25 | O=c1c2ccccc2sn1-c1ccc(N2CCOCC2)cc1 [LC-27] | – | 1830 | 28 | 28.37 | – | – | – | – | – | – | KD = N/A irreversible or not active | – | – | –
26 | C[C@@H](NC(=O)c1ccccc1S)c1ccccc1 [LC-28] | – | 808 | 56 | 55.52 | 100 | 100 (≈ 25.7 mg/mL) | – | – | – | – | KD = N/A irreversible or not active | – | – | –
27 | C[C@H](c1ccccc1)n1sc2ccccc2c1=O [LC-29] | 658 | 669 | 42 | 42.02 | 100 | 100 (≈ 25.5 mg/mL) | – | 669 | – | – | – | – | – | –
28 | O=C(Nc1cccc(F)c1)c1ccccc1S [LC-30] | – | 2990 | 62 | 62.38 | 100 | 100 (≈ 24.7 mg/mL) | – | – | – | – | KD = N/A irreversible or not active | – | – | –
29 | O=c1c2ccccc2sn1-c1cccc(F)c1 [LC-31] | – | 1760 | 36 | 36.24 | 100 | 100 (≈ 24.5 mg/mL) | – | – | – | – | KD = N/A irreversible or not active | – | – | –
30 | COCCn1sc2ccccc2c1=O [LC-32] | 158 | 700 | 42 | 41.96 | 100 | 100 (≈ 20.9 mg/mL) | – | – | – | – | – | – | – | –
31 | O=C(Nc1ccc(Oc2ccccc2)cc1)c1ccccc1S [LC-33] | – | 2940 | 54 | 54.43 | 100 | 100 (≈ 32.1 mg/mL) | – | – | – | – | KD = N/A irreversible or not active | – | – | –
32 | Cc1ccc(NC(=O)c2ccccc2S)c(Br)c1 [LC-34] | – | 3770 | 42 | 41.95 | 100 | 100 (≈ 32.2 mg/mL) | – | – | – | – | KD = N/A irreversible or not active | – | – | –
33 | Cn1sccc1=O [LC-35] | – | – | 15 | 14.63 | – | 100 (≈ 11.5 mg/mL) | – | – | – | – | KD = N/A irreversible or not acitve | – | Not Active | 100
34 | O=c1[nH]sc2ncccc12 [LC-47, isothiazolo[5,4-b]pyridin-3(2H)-one] | – | > 50000 | 36 | 36.31 | – | – | – | – | – | – | KD = N/A irreversible or not active | – | – | –
35 | O=C(C1CC1)N1CCN(Cn2oc3ccccc3c2=O)CC1 [Oxy- LOC14] | – | – | – | 8.16 | 100 | – | – | – | – | – | – | – | Not Active | –
